{"source": "paper PMC3585822", "about": "“The ancestral activation promiscuity of ADP-glucose pyrophosphorylases from oxygenic photosynthetic organisms” (BMC Evolutionary Biology, 2013)", "assay_in_all_cases": "ADP-[…]Glc synthesis from […]Glc1P, modified Hill fit", "key": {"OtaS": {"tested_on": "T1, OtaS", "T1 construct": "recombinant small subunit homotetramer from E. coli AC70R1-504, purified; plasmid pMAB5 or pMAB6", "format": "biochemical, Ostreococcus tauri", "conditions": "allosteric activator; 1 mM ATP, 1 mM Glc1P, 7 mM MgCl2, pH 8.0, 37 °C; read-out: A0.5"}, "OtaS/OtaL [1]": {"tested_on": "T2, OtaS/OtaL", "T2 construct": "recombinant S2L2 heterotetramer co-expressed in E. coli AC70R1-504, purified", "format": "biochemical, Ostreococcus tauri", "conditions": "allosteric activator; 1 mM ATP, 1 mM Glc1P, 7 mM MgCl2, pH 8.0, 37 °C; non-catalytic OtaL with wild-type OtaS; read-out: A0.5"}, "OtaS/OtaL [2]": {"tested_on": "T2, OtaS/OtaL", "format": "biochemical, Ostreococcus tauri", "conditions": "allosteric activator; 1 mM ATP, 1 mM Glc1P, 7 mM MgCl2, pH 8.0, 37 °C; read-out: A0.5"}, "OtaS/OtaL [3]": {"tested_on": "T2, OtaS/OtaL", "format": "biochemical, Ostreococcus tauri", "conditions": "allosteric activator; 1 mM ATP, 1 mM Glc1P, 7 mM MgCl2, pH 8.0, 37 °C; non-catalytic OtaS with wild-type OtaL; read-out: A0.5"}, "[4]": {"biological_target": "T3, ADP-Glc PPase from Anabaena (Nostoc sp. PCC 7120 = FACHB-418, UniProt P30521)", "T3 construct": "gene glgC; recombinant homotetramer from E. coli AC70R1-504, purified", "T3 sequence (P30521 1-429)": "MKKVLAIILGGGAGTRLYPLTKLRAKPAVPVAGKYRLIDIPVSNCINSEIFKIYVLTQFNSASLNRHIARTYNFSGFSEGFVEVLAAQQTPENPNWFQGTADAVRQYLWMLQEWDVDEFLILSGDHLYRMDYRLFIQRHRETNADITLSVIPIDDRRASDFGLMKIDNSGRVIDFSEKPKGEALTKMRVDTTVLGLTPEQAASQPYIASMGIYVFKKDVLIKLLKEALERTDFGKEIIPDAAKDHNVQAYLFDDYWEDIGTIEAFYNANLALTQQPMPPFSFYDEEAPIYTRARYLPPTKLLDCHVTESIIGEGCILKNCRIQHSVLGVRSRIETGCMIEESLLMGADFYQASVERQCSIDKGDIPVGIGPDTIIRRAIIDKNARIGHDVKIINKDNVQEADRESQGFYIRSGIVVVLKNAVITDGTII", "format": "biochemical", "conditions": "read-out: A0.5"}, "[5]": {"conditions": "allosteric activator, 1 mM ATP, 1 mM Glc1P, 7 mM MgCl2, pH 8.0, 37 °C"}}, "note": "Like-named read-outs stand apart in the source and are kept apart here."}
{"smiles": "O=P(O)(O)OC[C@H]1OC(O)(COP(=O)(O)O)[C@@H](O)[C@@H]1O", "note": "(stereo partly shown) [FBP]", "values": [{"measurement": "EC50", "setting": "OtaS", "value": 1100, "unit": "µM"}, {"measurement": "EC50", "setting": "OtaS/OtaL [1]", "value": 1500, "unit": "µM"}, {"measurement": "EC50", "setting": "OtaS/OtaL [2]", "value": 1100, "unit": "µM"}, {"measurement": "EC50", "setting": "OtaS/OtaL [3]", "value": 8200, "unit": "µM"}, {"measurement": "EC50", "setting": "[4]; [5]", "value": 300, "unit": "µM"}]}
{"smiles": "O=C(O)[C@H](O)COP(=O)(O)O", "note": "[3-PGA]", "values": [{"measurement": "EC50", "setting": "OtaS", "value": 1200, "unit": "µM"}, {"measurement": "EC50", "setting": "OtaS/OtaL [1]", "value": 67, "unit": "µM"}, {"measurement": "EC50", "setting": "OtaS/OtaL [2]", "value": 540, "unit": "µM"}, {"measurement": "EC50", "setting": "OtaS/OtaL [3]", "value": 3, "unit": "µM"}, {"measurement": "EC50", "setting": "[4]", "value": 75, "unit": "µM"}]}
{"smiles": "O=P(O)(O)OC[C@H]1OC(O)[C@H](O)[C@@H](O)[C@@H]1O", "note": "(stereo partly shown) [Glc6P]", "values": [{"measurement": "EC50", "setting": "OtaS", "value": 10000, "unit": "µM"}, {"measurement": "EC50", "setting": "OtaS/OtaL [2]", "value": 75000, "unit": "µM"}, {"measurement": "EC50", "setting": "[4]; [5]", "value": 400, "unit": "µM"}]}
{"smiles": "O=P(O)(O)OC[C@H]1OC(O)(CO)[C@@H](O)[C@@H]1O", "note": "(stereo partly shown) [Fru6P]", "values": [{"measurement": "EC50", "setting": "OtaS", "value": 1900, "unit": "µM"}, {"measurement": "EC50", "setting": "OtaS/OtaL [2]", "value": 15000, "unit": "µM"}, {"measurement": "EC50", "setting": "[4]; [5]", "value": 1600, "unit": "µM"}]}
